According to patent US20100035856A1, “Beta-LACTAM-CONTAINING FORMULATIONS WITH INCREASED STABILITY IN AQUEOUS SOLUTION” (BAYER ANIMAL HEALTH GMBH, priority 2007, published 2010):

Test: Stability of amoxicillin/K-clavulanate 4:1 in aqueous solution with urea
Format: physicochemical

loss of active ingredient (amoxicillin in aqueous amoxiclav solution containing 40% urea, within 24 hours) | Compound | stability of clavulanic acid, effect of urea (aqueous amoxiclav solution with urea (FIG. 4))
less than 10% | CC1(C)S[C@@H]2[C@H](NC(=O)[C@H](N)c3ccc(O)cc3)C(=O)N2[C@H]1C(=O)O [amoxicillin] | –
– | O=C(O)[C@H]1/C(=C/CO)O[C@@H]2CC(=O)N21 [clavulanic acid] | not adversely affected at all
